Results: PubChem BioAssay AID1963962 (Molecular Pharmacology Branch, DTP, NCI, 2024)

Tested on: 967376-340-R-J2-PDC multicell spheroid viability
Test: Anticancer human tumor 967376-340-R-J2-PDC patient-derived colon adenocarcinoma cell line growth inhibition [PI3K]
Details: for IC50: curve of first compound; for viability, T/C: stronger effect = lower value
Summary of the method: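 Multi-cell spheroids combine tumor cells with HUVEC and human MSCs, treated with targeted agents alone or with inavolisib, alpelisib, duvelisib or copanlisib. Concentrations fall in half-log steps from at or near clinical Cmax, or from 10 microM where Cmax is unknown; viability read-out.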

[1] = second compound 0.0316 µM, first compound 0.0316 µM
[2] = second compound 0.0316 µM, first compound 0.1 µM
[3] = second compound 0.0316 µM, first compound 0.316 µM
[4] = second compound 0.0316 µM, first compound 1 µM
[5] = second compound 0.0316 µM, first compound 3.16 µM
[6] = second compound 0.0316 µM, first compound 10 µM
[7] = second compound 0.1 µM, first compound 0.0316 µM
[8] = second compound 0.1 µM, first compound 0.1 µM
[9] = second compound 0.1 µM, first compound 0.316 µM
[10] = second compound 0.1 µM, first compound 1 µM
[11] = second compound 0.1 µM, first compound 3.16 µM
[12] = second compound 0.1 µM, first compound 10 µM
[13] = second compound 0.316 µM, first compound 0.0316 µM
[14] = second compound 0.316 µM, first compound 0.1 µM
[15] = second compound 0.316 µM, first compound 0.316 µM
[16] = second compound 0.316 µM, first compound 1 µM
[17] = second compound 0.316 µM, first compound 3.16 µM
[18] = second compound 0.316 µM, first compound 10 µM
[19] = second compound 1 µM, first compound 0.0316 µM
[20] = second compound 1 µM, first compound 0.1 µM
[21] = second compound 1 µM, first compound 0.316 µM
[22] = second compound 1 µM, first compound 1 µM
[23] = second compound 1 µM, first compound 3.16 µM
[24] = second compound 1 µM, first compound 10 µM
[25] = second compound 3.16 µM, first compound 0.0316 µM
[26] = second compound 3.16 µM, first compound 0.1 µM
[27] = second compound 3.16 µM, first compound 0.316 µM
[28] = second compound 3.16 µM, first compound 1 µM
[29] = second compound 3.16 µM, first compound 3.16 µM
[30] = second compound 3.16 µM, first compound 10 µM
[31] = second compound 10 µM, first compound 0.0316 µM
[32] = second compound 10 µM, first compound 0.1 µM
[33] = second compound 10 µM, first compound 0.316 µM
[34] = second compound 10 µM, first compound 1 µM
[35] = second compound 10 µM, first compound 3.16 µM
[36] = second compound 10 µM, first compound 10 µM
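Further: spheroids exposed to agents for 7 days before read-out.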
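Wherever viability, T/C is given: luminescence used as surrogate of cell viability.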

C=CC(=O)N1CCN(c2nc(=O)n(-c3c(C)ccnc3C(C)C)c3nc(-c4c(O)cccc4F)c(F)cc23)C(C)C1 (stereo unspecified) + CC(Nc1ncnc2nc[nH]c12)c1cc2cccc(Cl)c2c(=O)n1-c1ccccc1
IC50 (second compound 0.0316 µM): > 10 µM
IC50 (second compound 0.1 µM): > 10 µM
IC50 (second compound 0.316 µM): > 10 µM
IC50 (second compound 1 µM): > 10 µM
IC50 (second compound 3.16 µM): > 10 µM
IC50 (second compound 10 µM): > 10 µM
viability, T/C [1]: 95.8%
viability, T/C [2]: 104%
viability, T/C [3]: 99.1%
viability, T/C [4]: 102%
viability, T/C [5]: 96.6%
viability, T/C [6]: 108%
viability, T/C [7]: 123%
viability, T/C [8]: 108%
viability, T/C [9]: 97.7%
viability, T/C [10]: 94.2%
viability, T/C [11]: 106%
viability, T/C [12]: 104%
viability, T/C [13]: 105%
viability, T/C [14]: 107%
viability, T/C [15]: 107%
viability, T/C [16]: 104%
viability, T/C [17]: 86.7%
viability, T/C [18]: 94.8%
viability, T/C [19]: 107%
viability, T/C [20]: 98.3%
viability, T/C [21]: 100%
viability, T/C [22]: 97.8%
viability, T/C [23]: 105%
viability, T/C [24]: 76.3%
viability, T/C [25]: 79.7%
viability, T/C [26]: 91.6%
viability, T/C [27]: 81.2%
viability, T/C [28]: 98%
viability, T/C [29]: 96.2%
viability, T/C [30]: 86.6%
viability, T/C [31]: 75.7%
viability, T/C [32]: 83.9%
viability, T/C [33]: 75.4%
viability, T/C [34]: 78.7%
viability, T/C [35]: 94.4%
viability, T/C [36]: 91.9%

Cn1ncc(Cl)c1-c1cc(C(=O)NC(CN)Cc2cccc(F)c2)sc1Cl (stereo unspecified) + CC(Nc1ncnc2nc[nH]c12)c1cc2cccc(Cl)c2c(=O)n1-c1ccccc1
IC50 (second compound 0.0316 µM): > 10 µM
IC50 (second compound 0.1 µM): > 10 µM
IC50 (second compound 0.316 µM): > 10 µM
IC50 (second compound 1 µM): 9.58 µM
IC50 (second compound 3.16 µM): > 10 µM
IC50 (second compound 10 µM): 6.67 µM
viability, T/C [1]: 99%
viability, T/C [2]: 95%
viability, T/C [3]: 93.6%
viability, T/C [4]: 91.1%
viability, T/C [5]: 66.9%
viability, T/C [6]: 62.5%
viability, T/C [7]: 122%
viability, T/C [8]: 97.3%
viability, T/C [9]: 104%
viability, T/C [10]: 86.7%
viability, T/C [11]: 84.8%
viability, T/C [12]: 71.1%
viability, T/C [13]: 87.2%
viability, T/C [14]: 97.7%
viability, T/C [15]: 86.9%
viability, T/C [16]: 81.4%
viability, T/C [17]: 78.3%
viability, T/C [18]: 64.6%
viability, T/C [19]: 85.3%
viability, T/C [20]: 104%
viability, T/C [21]: 101%
viability, T/C [22]: 86.4%
viability, T/C [23]: 79.1%
viability, T/C [24]: 48.8%
viability, T/C [25]: 101%
viability, T/C [26]: 93.7%
viability, T/C [27]: 104%
viability, T/C [28]: 73.5%
viability, T/C [29]: 73.2%
viability, T/C [30]: 53.6%
viability, T/C [31]: 79.4%
viability, T/C [32]: 88.5%
viability, T/C [33]: 96.7%
viability, T/C [34]: 86.3%
viability, T/C [35]: 60.3%
viability, T/C [36]: 44.4%

Cn1nccc1Nc1nccc(-c2ccn(C(CO)c3ccc(Cl)c(F)c3)c(=O)c2)n1 (stereo unspecified) + CC(Nc1ncnc2nc[nH]c12)c1cc2cccc(Cl)c2c(=O)n1-c1ccccc1
IC50 (second compound 0.0316 µM): > 10 µM
IC50 (second compound 0.1 µM): > 10 µM
IC50 (second compound 0.316 µM): > 10 µM
IC50 (second compound 1 µM): > 10 µM
IC50 (second compound 3.16 µM): > 10 µM
IC50 (second compound 10 µM): > 10 µM
viability, T/C [1]: 97.2%
viability, T/C [2]: 115%
viability, T/C [3]: 101%
viability, T/C [4]: 102%
viability, T/C [5]: 101%
viability, T/C [6]: 114%
viability, T/C [7]: 103%
viability, T/C [8]: 105%
viability, T/C [9]: 95.9%
viability, T/C [10]: 128%
viability, T/C [11]: 128%
viability, T/C [12]: 106%
viability, T/C [13]: 107%
viability, T/C [14]: 115%
viability, T/C [15]: 114%
viability, T/C [16]: 76.1%
viability, T/C [17]: 104%
viability, T/C [18]: 110%
viability, T/C [19]: 96.2%
viability, T/C [20]: 93.3%
viability, T/C [21]: 87.8%
viability, T/C [22]: 89%
viability, T/C [23]: 99%
viability, T/C [24]: 96.3%
viability, T/C [25]: 87.5%
viability, T/C [26]: 85.3%
viability, T/C [27]: 80.1%
viability, T/C [28]: 89.3%
viability, T/C [29]: 99.7%
viability, T/C [30]: 81.4%
viability, T/C [31]: 95.7%
viability, T/C [32]: 73.4%
viability, T/C [33]: 86.3%
viability, T/C [34]: 86.7%
viability, T/C [35]: 76.2%
viability, T/C [36]: 75.3%
